Measured values as given in ChEMBL document CHEMBL1201862, “PubChem BioAssay data set” (2004).
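Five concentrations, 48 hours, 96-well plates. GI50 is the concentration that inhibits growth by half.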 Active and inactive are the calls of the source. Cut-off read from the data, not from the text of the source: active = GI50 up to about 1.1 µM and inactive = higher.

Columns and labels:
Experiment in all cases: NCI anticancer screen, dose series, 48 h
A498 = tested on: A498
CCRF-CEM = tested on: CCRF-CEM
DLD-1 = tested on: DLD-1
DMS-114 = tested on: DMS-114
HOP-18 = tested on: HOP-18
HOP-62 = tested on: HOP-62
MCF7 = tested on: MCF7
NCI-H460 = tested on: NCI-H460
OVCAR-8 = tested on: OVCAR-8
SK-MEL-2 = tested on: SK-MEL-2
SNB-19 = tested on: SNB-19
SNB-78 = tested on: SNB-78
SW-620 = tested on: SW-620
XF498 = tested on: XF498
786-0 = tested on: 786-0
BT-549 = tested on: BT-549
MDA-N = tested on: MDA-N
SR = tested on: SR
TK-10 = tested on: TK-10

NCC(Cl)C(O)c1c[nH]c(N)n1 (stereo not given)
GI50 (A498): 0.147 µM (active)
GI50 (CCRF-CEM): 1.58 µM (inactive)
GI50 (DLD-1): 1.84 µM (inactive)
GI50 (DMS-114): 1.54 µM (inactive)
GI50 (HOP-18): 0.275 µM (active)
GI50 (HOP-62): 0.371 µM (active)
GI50 (MCF7): 2.77 µM (inactive)
GI50 (NCI-H460): 2.14 µM (inactive)
GI50 (OVCAR-8): 0.546 µM (active)
GI50 (SK-MEL-2): 3.56 µM (inactive)
GI50 (SNB-19): 1.16 µM (inactive)
GI50 (SNB-78): 9.79 µM (inactive)
GI50 (SW-620): 0.37 µM (active)
GI50 (XF498): 2.45 µM (inactive)

ON(Cc1ccccc1)C(=S)c1ccccc1
GI50 (786-0): 4.82 µM (inactive)
GI50 (A498): 25.3 µM (inactive)
GI50 (BT-549): 39.2 µM (inactive)
GI50 (CCRF-CEM): 0.342 µM (active)
GI50 (DLD-1): 5.18 µM (inactive)
GI50 (DMS-114): 2.22 µM (inactive)
GI50 (HOP-18): 15.9 µM (inactive)
GI50 (HOP-62): 4.85 µM (inactive)
GI50 (MCF7): 3.28 µM (inactive)
GI50 (MDA-N): 6.81 µM (inactive)
GI50 (NCI-H460): 1.93 µM (inactive)
GI50 (OVCAR-8): 3.46 µM (inactive)
GI50 (SK-MEL-2): 2.62 µM (inactive)
GI50 (SNB-19): 17.7 µM (inactive)
GI50 (SNB-78): 31.8 µM (inactive)
GI50 (SR): 0.481 µM (active)
GI50 (SW-620): 4.23 µM (inactive)
GI50 (TK-10): 21.8 µM (inactive)
GI50 (XF498): > 41.7 µM (inactive)

Nc1ncnc2c1ncn2C1C(O)C=C(CO)C1O (stereo not given)
GI50 (DLD-1): > 625 µM (inactive)
GI50 (DMS-114): > 625 µM (inactive)
GI50 (HOP-18): > 625 µM (inactive)
GI50 (HOP-62): > 625 µM (inactive)
GI50 (MCF7): > 625 µM (inactive)
GI50 (NCI-H460): > 625 µM (inactive)
GI50 (OVCAR-8): > 625 µM (inactive)
GI50 (SK-MEL-2): > 625 µM (inactive)
GI50 (SNB-19): > 625 µM (inactive)
GI50 (SNB-78): > 625 µM (inactive)
GI50 (SW-620): > 625 µM (inactive)
GI50 (XF498): < 0.0625 µM (active)
